Measurements: US20190100534A1, “Cephem Compounds with Latent Reactive Groups” (Gladius Pharmaceuticals, Inc., priority 2017, published 2019)

Columns and labels:
CF (RR -1) = assay: MIC determination; assay type: cell-based, Citrobacter freundii; conditions: CAMH broth, 20 μM Apo-Transferrin, 37° C., 18 hours
Method: (§1) Sterile technique was used throughout these experiments. Suspensions of organisms were removed from storage (−80° C.) and partially thawed. Partially thawed organisms (1 μL) were inoculated into 3 mL sterile LB Broth in a sterile culture tube and capped, then cultured at 37° C. with shaking for 4-5 hours until the optical density at 600 nm (OD600) was greater than 0.1 on a single beam spectrophotometer.
(§2) The concentration of organisms was adjusted to 0.08-0.1 OD600 (0.5 McFarland units) by dilution with sterile cation-adjusted Meuller-Hinton (CAMH) broth. The suspensions were used within 30 minutes of preparation.
(§3) A stock solution was made of each test compound by measuring 6.4 mg of the compound on an analytical balance and dissolving it in DMSO (1 mL) to get a transparent solution. The solutions were stored at −20° C. and thawed prior to use.
(§4) Sterile CAMH broth (200 μL) containing 20 μM Apo-Transferrin was pipetted into the first row of 8 columns of a sterile, round-bottomed, transparent, 96-well microplate using an 8-channel pipette equipped with sterile tips. One hundred μL was pipetted into the wells of the remaining 11 rows.
(§5) With an 8-channel pipette equipped with sterile tips, 100 μL of the first row solution was transferred to the second row and mixed. The process was repeated for the second to third rows and continued through row 11. One hundred μL from row 11 was removed and discarded so that all 12 rows contained 100 μL. Row 12 contained no compound and rows 1-11 contained 64, 32, 16, 8, 4, 2, 1, 0.5, 0.25, 0.125, […] of a given compound.
(§6) Inoculant suspensions (0.5 μL) were added to the 12 wells of each column. The plates were then covered and incubated at 37° C. overnight for 18 hours.
(§7) For each organism the MIC was determined by identifying the transparent well with the lowest test compound concentration.

KP(ATCC SHV-18) = assay: MIC determination; assay type: cell-based, Klebsiella pneumoniae; conditions: CAMH broth, 20 μM Apo-Transferrin, 37° C., 18 hours
In short: (§8)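 Broth microdilution in CAMH + 20 μM apo-transferrin; inoculum 0.5 McFarland, used within 30 min. Compound 64→0.125 μg/mL, twofold steps. 37 °C, 18 h. MIC = lowest clear-well concentration.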

ENA (URMC-1) = assay: MIC determination; assay type: cell-based, Enterobacter aerogenes; conditions: Klebsiella aerogenes, CAMH broth, 20 μM Apo-Transferrin, 37° C., 18 hours, read-out: Minimum Inhibitory Concentrations, ENA (URMC-1)
Method: as §1, §2, §3, §4, §5, §6, §7

ENA (URMC-2) = assay: MIC determination; assay type: cell-based, Enterobacter aerogenes; conditions: Klebsiella aerogenes, CAMH broth, 20 μM Apo-Transferrin, 37° C., 18 hours, read-out: Minimum Inhibitory Concentrations, ENA (URMC-2)
Method: as §1, §2, §3, §4, §5, §6, §7

PM (Proteus mirabilis) = assay: MIC determination; assay type: cell-based; conditions: Proteus mirabilis, CAMH broth, 20 μM Apo-Transferrin, 37° C., 18 hours, read-out: Minimum Inhibitory Concentrations, PM
In short: as §8

SM (Serratia marcescens) = assay: MIC determination; assay type: cell-based; conditions: Serratia marcescens, CAMH broth, 20 μM Apo-Transferrin, 37° C., 18 hours, read-out: Minimum Inhibitory Concentrations, SM
In short: as §8

[1] = test system: CF (Citrobacter freundii); assay: MIC determination; assay type: cell-based; conditions: Citrobacter freundii, CAMH broth, 20 μM Apo-Transferrin, 37° C., 18 hours, read-out: Minimum Inhibitory Concentrations, CF
In short: as §8

[2] = test system: ENC (Enterobacter cloacae); assay: MIC determination; assay type: cell-based; conditions: CAMH broth, 20 μM Apo-Transferrin, 37° C., 18 hours
In short: as §8

EC (URMC-1) = assay: MIC determination; assay type: cell-based, Escherichia coli; conditions: Escherichia coli, CAMH broth, 20 μM Apo-Transferrin, 37° C., 18 hours, read-out: Minimum Inhibitory Concentrations, EC (URMC-1)
Method: as §1, §2, §3, §4, §5, §6, §7

EC(KB1 CTX-M-15) = assay: MIC determination; assay type: cell-based, Escherichia coli; conditions: Escherichia coli, CAMH broth, 20 μM Apo-Transferrin, 37° C., 18 hours, read-out: Minimum Inhibitory Concentrations, EC(KB1 CTX-M-15)
Method: as §1, §2, §3, §4, §5, §6, §7

EC (RR -1) = assay: MIC determination; assay type: cell-based, Escherichia coli; conditions: CAMH broth, 20 μM Apo-Transferrin, 37° C., 18 hours
Method: as §1, §2, §3, §4, §5, §6, §7

EC (RR -2) = assay: MIC determination; assay type: cell-based, Escherichia coli; conditions: CAMH broth, 20 μM Apo-Transferrin, 37° C., 18 hours
Method: as §1, §2, §3, §4, §5, §6, §7

EC(JMI OXA-48) = assay: MIC determination; assay type: cell-based, Escherichia coli; conditions: Escherichia coli, CAMH broth, 20 μM Apo-Transferrin, 37° C., 18 hours, read-out: Minimum Inhibitory Concentrations, EC(JMI OXA-48)
Method: as §1, §2, §3, §4, §5, §6, §7

EC(KB2 CTX-M-14) = assay: MIC determination; assay type: cell-based, Escherichia coli; conditions: Escherichia coli, 18 h, read-out: Minimum Inhibitory Concentrations, EC(KB2 CTX-M-14)
Method: as §1, §2, §3, §4, §5, §6, §7

EC(KB1 CTX-M-14) = assay: MIC determination; assay type: cell-based, Escherichia coli; conditions: Escherichia coli, 18 h, read-out: Minimum Inhibitory Concentrations, EC(KB1 CTX-M-14)
Method: as §1, §2, §3, §4, §5, §6, §7

EC(KB2 CTX-M-15) = assay: MIC determination; assay type: cell-based, Escherichia coli; conditions: Escherichia coli, CAMH broth, 20 μM Apo-Transferrin, 37° C., 18 hours, read-out: Minimum Inhibitory Concentrations, EC(KB2 CTX-M-15)
Method: as §1, §2, §3, §4, §5, §6, §7

EC (URMC-3) = assay: MIC determination; assay type: cell-based, Escherichia coli; conditions: Escherichia coli, CAMH broth, 20 μM Apo-Transferrin, 37° C., 18 hours, read-out: Minimum Inhibitory Concentrations, EC (URMC-3)
Method: as §1, §2, §3, §4, §5, §6, §7

EC(ATCC NDM-1) = assay: MIC determination; assay type: cell-based, Escherichia coli; conditions: Escherichia coli, CAMH broth, 20 μM Apo-Transferrin, 37° C., 18 hours, read-out: Minimum Inhibitory Concentrations, EC(ATCC NDM-1)
Method: as §1, §2, §3, §4, §5, §6, §7

EC (URMC-2) = assay: MIC determination; assay type: cell-based, Escherichia coli; conditions: Escherichia coli, CAMH broth, 20 μM Apo-Transferrin, 37° C., 18 hours, read-out: Minimum Inhibitory Concentrations, EC (URMC-2)
Method: as §1, §2, §3, §4, §5, §6, §7

[3] = test system: various Pseudomonas strains; assay: MIC determination, summary in text; assay type: cell-based, Pseudomonas aeruginosa; conditions: review of Tables 1-1 and 1-2
Method: as §1, §2, §3, §4, §5, §6, §7

PM (RR -1) = assay: MIC determination; assay type: cell-based, Proteus mirabilis; conditions: CAMH broth, 20 μM Apo-Transferrin, 37° C., 18 hours
Method: as §1, §2, §3, §4, §5, §6, §7

ENC (ATCC NDM-1) = assay: MIC determination; assay type: cell-based, Enterobacter cloacae; conditions: CAMH broth, 20 μM Apo-Transferrin, 37° C., 18 hours
Method: as §1, §2, §3, §4, §5, §6, §7

[4] = test system: both Acinetobacter baumannii strains tested; assay: MIC determination, summary in text; assay type: cell-based; conditions: review of Table 2
Method: as §1, §2, §3, §4
With an 8-channel pipette equipped with sterile tips, 100 μL of the first row solution was transferred to the second row and mixed. […]
as §7

SMILES	Mimimum Inhibitory Concentrations, CF (RR -1) (CF (RR -1)) [microgram/mL]	Minimum Inhibitory Concentrations, KP(ATCC SHV-18) (KP(ATCC SHV-18)) [microgram/mL]	MIC (ENA (URMC-1)) [µg/mL]	MIC (ENA (URMC-2)) [µg/mL]	MIC (PM (Proteus mirabilis)) [µg/mL]	MIC (SM (Serratia marcescens)) [µg/mL]	MIC [1] [µg/mL]	Mimimum Inhibitory Concentrations, ENC [2] [microgram/mL]	MIC (EC (URMC-1)) [µg/mL]	MIC (EC(KB1 CTX-M-15)) [µg/mL]	Mimimum Inhibitory Concentrations, EC (RR -1) (EC (RR -1)) [microgram/mL]	Mimimum Inhibitory Concentrations, EC (RR -2) (EC (RR -2)) [microgram/mL]	MIC (EC(JMI OXA-48)) [µg/mL]	MIC (EC(KB2 CTX-M-14)) [µg/mL]	MIC (EC(KB1 CTX-M-14)) [µg/mL]	MIC (EC(KB2 CTX-M-15)) [µg/mL]	MIC (EC (URMC-3)) [µg/mL]	MIC (EC(ATCC NDM-1)) [µg/mL]	MIC (EC (URMC-2)) [µg/mL]	Mimimum Inhibitory Concentrations, PM (RR -1) (PM (RR -1)) [microgram/mL]	other results
CC(C)(O/N=C(\C(=O)N[C@@H]1C(=O)N2C(C(=O)O)=C(C=Cc3ccc(C[N+]4(C)CCc5cc(O)c(O)cc5C4)cc3)CS[C@H]12)c1csc(N)n1)C(=O)O (mixture of isomers) [Compound 407, 2-(4-((E/Z)-2-((6R,7R)-7-((Z)-2-(2-aminothiazol-4-yl)-2-(((2-carboxypropan-2-yl)oxy)imino)acetamido)-2-carboxy-8-oxo-5-thia-1-azabicyclo[4.2.0]oct-2-en-3 yl)vinyl)benzyl)-6,7-dihydroxy-2-methyl-1,2,3,4-tetrahydroisoquinolin-2-ium]	0.13	2	0.5	0.5	≤ 0.06	0.25	≤ 0.06	4	0.25	> 64	0.13	0.13	16	64	2	> 64	≤ 0.06	> 64	0.25	≤0.06	MICs for various Pseudomonas strains, in words [3]: low microgram/mL MICs; Mimimum Inhibitory Concentrations, ENC (ATCC NDM-1) (ENC (ATCC NDM-1)): >64 microgram/mL; MICs for both Acinetobacter baumannii strains tested, in words [4]: lower microgram/mL MICs
CC(C)(O/N=C(\C(=O)N[C@@H]1C(=O)N2C(C(=O)O)=C(C=Cc3ccc(C[n+]4ccc(-c5ccc(O)c(O)c5)cc4)cc3)CS[C@H]12)c1csc(N)n1)C(=O)O (mixture of isomers) [Compound 412, 1-(4-((E/Z)-2-((6R,7R)-7-((Z)-2-(2-aminothiazol-4-yl)-2-(((2-carboxypropan-2-yl)oxy)imino)acetamido)-2-carboxy-8-oxo-5-thia-1-azabicyclo[4.2.0]oct-2-en-3-yl)vinyl)benzyl)-4-(3,4-dihydroxyphenyl)pyridin-1-ium]	≤0.06	1	0.25	0.13	≤ 0.06	0.5	≤ 0.06	4	0.25	16	0.25	≤0.06	2	1	0.5	32	≤ 0.06	> 64	4	≤0.06	Mimimum Inhibitory Concentrations, ENC (ATCC NDM-1) (ENC (ATCC NDM-1)): >64 microgram/mL
